Converted amounts (≈) assume the structure as drawn.

One assay deals with C. albicans. Put plainly: Minimum inhibiting concentration towards unicellular fungi, serial dilution. It counts as cell-based. The conditions noted are these: Sabouraud's agar. How it is done:
(§1) Discovering the Minimum Inhibiting Concentration of the Inventive Substance (Forms A and B) Towards Unicellular Fungi
(§2) Fungi were grown in Sabouraud's agar. The effect of the substance was assessed by means of the serial dilution method.

The test system of the next assay is C. glabrata. The description is as above. The class given is cell-based. The conditions noted are these: Sabouraud's agar. How it is done: as §1, §2
The next assay relates to C. krusei. Described as above. The class given is cell-based. Particulars: Sabouraud's agar. How it is done: as §1, §2
Another assay concerns C. parapsilosis. The assay is described as above. Particulars: Sabouraud's agar. It counts as cell-based. How it is done:
as §1, §2

For another assay, the system named is S. cerevisiae. The description is as above. It counts as cell-based. The conditions noted are these: Sabouraud's agar. How it is done: as §1, §2
Another assay has as its system Aspergillus. Put plainly: Minimum inhibiting concentration towards multicellular fungi. It counts as cell-based. An excerpt:
(§3) Discovering the Minimum Inhibiting Concentration of the Inventive Agent Towards Multicellular Fungi

For the next assay, the system named is Mucor. Described as above. It counts as cell-based.
From the text: as §3

The next assay has as its system A. alternata. Put plainly: Biocidal effect on spores of fungi that cause plant diseases and damage agricultural products. The conditions noted are these: fungi spores (a mixture). It counts as cell-based, Alternaria alternata. How it is done:
(§4) Various fungi were used in the experiment—vegetative forms and spores of Alternaria alternata, Fusarium moniliforme, Botrytis spp. that cause diseases of plants and damage agricultural products. Biocidal properties were tested on spores of fungi cultures with optical density of the inoculated dose p E=0.310.

Another assay deals with F. moniliforme. The description is as above. It counts as cell-based, Fusarium moniliforme. Particulars: fungi spores (a mixture). How it is done:
as §4

The test system of another assay is Botrytis spp. The assay is described as above. It counts as cell-based. The conditions noted are these: fungi spores (a mixture). How it is done: as §4
The next assay concerns Aspergillis niger. Put plainly: Biocidal effect on spores of fungi that damage paper, wood and dyes. It counts as cell-based. Particulars: fungi spores (a mixture). How it is done: (§5) Various fungi were used in the experiment—vegetative forms and spores of Aspergillis niger, Penicillium ochro-chloron that damage paper, wood and dyes thereof.
(§6) Biocidal properties were tested on spores of fungi cultures with optical density of the inoculated dose p E=0.310.

Assay [1] concerns Penicillium ochro-chloron. The description is as above. The conditions noted are these: fungi spores (a mixture). The class given is cell-based. How it is done:
as §5, §6

For assay [2], the system named is Candida albicans strain 15. Put plainly: Assessment of the fungicide effect, serial dilutions in microplates with neutralizer. The conditions noted are these: for Concentration that destroys the fungi (fungicide effect): Candida genus, exposure time 24 h. It counts as cell-based. How it is done: (§7) Strains of fungi of Candida genus (Candida albicans strain 15) that are resistant towards disinfecting agents and trichophyton (Trichophiton gypseum), which were cultivated in Sabouraud's agar, were used as test microorganisms.
(§8) Forms A and B were dissolved in sterile distilled water.
(§9) The method of serial dilutions in microplates was used in the experiment. The dissolved substance was titrated in the culture medium, then the test microorganisms were introduced and after certain intervals of disinfection time the neutralizer was added, namely 0.1% solution of citric acid. After the exposure during 1-2 minutes the contents of each well were plated to solid culture media.
(§10) The following concentrations of the substance were studied: 0.1-0.05-0.025-0.0125% of the drug for action duration of 1, 3, 5, 10, 20, minutes and 1.0-1.5-3.0 and 24 h.
(§11) All inoculations were incubated at an optimum temperature during 24 hours.
(§12) The fungicide effect was assessed according to the presence or absence of growing microorganisms in the culture media.

Another assay concerns Trichophiton gypseum. Described as above. It counts as cell-based. The conditions noted are these: for Concentration that destroys the fungi (fungicide effect): trichophyton genus, exposure time 24 h. How it is done: as §7, §8, §9, §10, §11, §12
Where [3] appears, read: read-out: Minimum inhibiting (biocidal) concentration (MIC) of the substance.

Consider “2,4-dioxo-5-(2-hydroxy-3,5-dichlorobenzylidiene)amino-1,3-pyrimidine salt”, for which the Minimum inhibiting concentration in the assay on C. albicans came to 1 mg/L; in the assay on C. glabrata, 0.125 mg/L; in the assay with C. krusei, 1 mg/L; with C. parapsilosis, 0.250 mg/L; in the assay on S. cerevisiae, 0.125 mg/L. Further, the “Minimum inhibiting concentration (MIC)” value with Aspergillus came to 2 mg/L; with Mucor, 1 mg/L. The “Minimum inhibiting (biocidal) concentration of the substance” value with A. alternata was 4.0 µg/mL; in the assay with F. moniliforme, 8.0 µg/mL; with Botrytis spp, 8.0 µg/mL. Besides, the entries for the “Minimum inhibiting (biocidal) concentration (MIC) of the substance” value (in the assay on Aspergillis niger; in [1]) were 2.0 mg/L and 8.0 mg/L, respectively. Moreover, the “Concentration that destroys the fungi (fungicide effect)” value in assay [2] was 0.025%; in the assay with Trichophiton gypseum it was 0.1%.

“Dimer of sodium salt of 2,4-dioxo-5-(2-hydroxy-3,5-dichlorobenzylidiene)amino-1,3-pyrimidine”: the Minimum inhibiting concentration turned out to be 1 mg/L in the assay with C. albicans; 0.250 mg/L in the assay on C. glabrata; 1 mg/L in the assay with C. krusei; 0.125 mg/L in the assay with C. parapsilosis; 0.125 mg/L in the assay on S. cerevisiae. Moreover, the figures for the “Minimum inhibiting concentration (MIC)” value in the assay with Aspergillus and in the assay with Mucor were 2 mg/L and 1 mg/L, respectively. The “Minimum inhibiting (biocidal) concentration of the substance” value in the assay on A. alternata was 2.0 µg/mL; in the assay with F. moniliforme it was 4.0 µg/mL; in the assay on Botrytis spp, 4.0 µg/mL. Also, the “Minimum inhibiting (biocidal) concentration (MIC) of the substance” value worked out at 1.0 mg/L with Aspergillis niger and 4.0 mg/L in [1]. Further, the “Concentration that destroys the fungi (fungicide effect)” value in assay [2] is on record as 0.025%; with Trichophiton gypseum it was 0.1%.

In the case of `OC(Cn1cncn1)(Cn1cncn1)c1ccc(F)cc1F` [Fluconazole, 2-(2,4-difluorophenyl)-1,3-bis(1N-1,2,4-triazol-1-yl)-2-propanol, reference compound], the MIC in the assay on C. albicans (Candida albicans) is 2 mg/L (≈ 6.53 µM); in the assay on C. glabrata (Nakaseomyces glabratus) it was 64 mg/L (≈ 209 µM); against C. krusei (Pichia kudriavzevii) it was 32 mg/L (≈ 104 µM); against C. parapsilosis (Lodderomyces parapsilosis), 0.25 mg/L (≈ 0.816 µM); in the assay on S. cerevisiae (Saccharomyces cerevisiae) it was 0.125 mg/L (≈ 0.408 µM); against Aspergillus, 64 mg/L (≈ 209 µM). Besides, the MIC (against Mucor; in the assay with Aspergillis niger (setting [3]); in [1] (setting [3])) was 64 mg/L (≈ 209 µM) each time. In addition, the “Minimum inhibiting (biocidal) concentration of the substance” value in the assay with A. alternata amounted to 32 µg/mL; with F. moniliforme, 64 µg/mL; in the assay on Botrytis spp, 64 µg/mL. Besides, the “Fungicide effect (presence or absence of growth)” value in assay [2] (Candida, same conditions as the inventive substance) was “did not destroy the microbes”; with Trichophiton gypseum (trichophyton, same conditions as the inventive substance), “did not destroy the microbes”.

Source of the values: US8987277B2, “Fungicide” (priority 2010, dated 2015).
